≈ marks a conversion by molar mass, not a printed value. Read-outs that look alike come from different tables or passages of the source.
Key:
Test in all cases: in vitro antibacterial activity, standard agar dilution method
Format in all cases: cell-based
[1] = test system: Pseudomonas aeruginosa NR 2950; details: NR2950, aerobic, read-out: minimum inhibitory concentration (MIC)
[2] = test system: Alcaligenes faecalis IFO 13111; details: IFO13111, aerobic, read-out: minimum inhibitory concentration (MIC)
[3] = test system: Serratia marcescens IFO 12648; details: IFO12648, aerobic, read-out: minimum inhibitory concentration (MIC)
[4] = test system: Bordetella bronchiseptica ATCC 4617; details: ATCC4617, aerobic, read-out: minimum inhibitory concentration (MIC)
[5] = test system: Proteus rettgeri ATCC 14505; details: Providencia rettgeri, ATCC14505, aerobic, read-out: minimum inhibitory concentration (MIC)
[6] = test system: Enterobacter aerogenes NR 2945; details: Klebsiella aerogenes, NR2945, aerobic, read-out: minimum inhibitory concentration (MIC)
[7] = test system: Pseudomonas aeruginosa A3; details: aerobic, read-out: minimum inhibitory concentration (MIC)
[8] = test system: Klebsiella pneumoniae FDA PCI 602; details: FDAPCI602, aerobic, read-out: minimum inhibitory concentration (MIC)
[9] = test system: Staphylococcus aureus Smith; details: read-out: minimum inhibitory concentration (MIC)
[10] = test system: Staphylococcus epidermidis IFO 12993; details: IFO12993, aerobic, read-out: minimum inhibitory concentration (MIC)
[11] = test system: Staphylococcus aureus FDA 209P JC-1; details: FDA209P, read-out: minimum inhibitory concentration (MIC)
[12] = test system: Salmonella typhimurium IFO 12529; details: Salmonella enterica, aerobic, read-out: minimum inhibitory concentration (MIC)
[13] = test system: Citrobacter freundii IFO 12681; details: IFO12681, aerobic, read-out: minimum inhibitory concentration (MIC)
Escherichia coli NR 2630 = details: NR2630; Escherichia coli NR 2630; aerobic; agar dilution; read-out: minimum inhibitory concentration (MIC)
[14] = test system: Pseudomonas stutzeri IFO 12695; details: Stutzerimonas stutzeri, IFO12695, aerobic, read-out: minimum inhibitory concentration (MIC)
[15] = test system: Bacillus subtilis PCI 219; details: PCI219, aerobic, read-out: minimum inhibitory concentration (MIC)
[16] = test system: Escherichia coli NIHJ JC-2; details: NIHJJC2, aerobic, read-out: minimum inhibitory concentration (MIC)
[17] = test system: Staphylococcus aureus NR 2855
[18] = test system: Proteus vulgaris OX19 ATCC 6898; details: ATCC6898, aerobic, read-out: minimum inhibitory concentration (MIC)
[19] = test system: Enterobacter cloacae NR 2946; details: NR2946, aerobic, read-out: minimum inhibitory concentration (MIC)
[20] = test system: Enterococcus faecalis NR 2943; details: NR2943, aerobic, read-out: minimum inhibitory concentration (MIC)
[21] = test system: Staphylococcus epidermidis NR 2942; details: NR2942, aerobic, read-out: minimum inhibitory concentration (MIC)
[22] = Staphylococcus aureus Smith, aerobic, agar dilution
[23] = NR2855, Staphylococcus aureus NR 2855, aerobic, agar dilution, read-out: minimum inhibitory concentration (MIC)
[24] = Staphylococcus aureus FDA 209P JC-1, aerobic, agar dilution

SMILES	MIC [1] [µg/mL]	MIC [2] [µg/mL]	MIC [3] [µg/mL]	MIC [4] [µg/mL]	MIC [5] [µg/mL]	MIC [6] [µg/mL]	MIC [7] [µg/mL]	MIC [8] [µg/mL]	MIC [9, 22] [µg/mL]	MIC [10] [µg/mL]	MIC [12] [µg/mL]	MIC [13] [µg/mL]	MIC (Escherichia coli NR 2630) [µg/mL]	MIC [14] [µg/mL]	MIC [15] [µg/mL]	MIC [16] [µg/mL]	MIC [18] [µg/mL]	MIC [19] [µg/mL]	MIC [20] [µg/mL]	MIC [21] [µg/mL]	other results
CN1COc2c(N3CCC(Cl)C3)c(F)cc3c(=O)c(C(=O)O)cn1c23 (stereo not shown) [Example 59, 10-(3-chloro-1-pyrrolidinyl)-9-fluoro-3-methyl-7-oxo-2,3-dihydro-7H-pyrido[3,2,1-ij]-1,3,4-benzoxadiazine-6-carboxylic acid]	25 (≈ 68 µM)	6.25 (≈ 17 µM)	3.13 (≈ 8.51 µM)	3.13 (≈ 8.51 µM)	3.13 (≈ 8.51 µM)	0.78 (≈ 2.12 µM)	3.13 (≈ 8.51 µM)	3.13 (≈ 8.51 µM)	0.05 (≈ 0.136 µM)	0.39 (≈ 1.06 µM)	1.56 (≈ 4.24 µM)	1.56 (≈ 4.24 µM)	0.39 (≈ 1.06 µM)	1.56 (≈ 4.24 µM)	0.0065 (≈ 0.0177 µM)	1.56 (≈ 4.24 µM)	0.2 (≈ 0.544 µM)	0.78 (≈ 2.12 µM)	3.13 (≈ 8.51 µM)	0.2 (≈ 0.544 µM)	MIC ([11]; Staphylococcus aureus): 0.39 µg/mL (≈ 1.06 µM); MIC [17, 23]: 0.1 µg/mL (≈ 0.272 µM)
CCN1CCN(c2c(F)cc3c(=O)c(C(=O)O)cn4c3c2OCN4C)CC1 [Example 42]	3.13 (≈ 8.32 µM)	1.56 (≈ 4.14 µM)	0.1 (≈ 0.266 µM)	0.39 (≈ 1.04 µM)	0.39 (≈ 1.04 µM)	0.025 (≈ 0.0664 µM)	0.39 (≈ 1.04 µM)	0.39 (≈ 1.04 µM)	0.39 (≈ 1.04 µM)	0.39 (≈ 1.04 µM)	0.025 (≈ 0.0664 µM)	0.05 (≈ 0.133 µM)	0.025 (≈ 0.0664 µM)	0.1 (≈ 0.266 µM)	0.05 (≈ 0.133 µM)	0.05 (≈ 0.133 µM)	0.025 (≈ 0.0664 µM)	0.05 (≈ 0.133 µM)	6.25 (≈ 16.6 µM)	0.39 (≈ 1.04 µM)	MIC [11, 24]: 0.39 µg/mL (≈ 1.04 µM); MIC [17, 23]: 0.39 µg/mL (≈ 1.04 µM)
CCN(C)CC1CCN(c2c(F)cc3c(=O)c(C(=O)O)cn4c3c2OCN4C)C1 (stereo not shown) [Example 48, 10-[3-[(ethylmethylamino)methyl]-1-pyrrolidinyl]-9-fluoro-3-methyl-7-oxo-2,3-dihydro-7H-pyrido-[3,2,1-ij]-1,3,4-benzoxadiazine-6-carboxylic acid]	50 (≈ 124 µM)	3.13 (≈ 7.74 µM)	1.56 (≈ 3.86 µM)	6.25 (≈ 15.5 µM)	3.13 (≈ 7.74 µM)	0.39 (≈ 0.964 µM)	3.13 (≈ 7.74 µM)	1.56 (≈ 3.86 µM)	0.2 (≈ 0.495 µM)	0.39 (≈ 0.964 µM)	0.39 (≈ 0.964 µM)	0.39 (≈ 0.964 µM)	0.1 (≈ 0.247 µM)	1.56 (≈ 3.86 µM)	0.05 (≈ 0.124 µM)	0.39 (≈ 0.964 µM)	0.39 (≈ 0.964 µM)	0.39 (≈ 0.964 µM)	6.25 (≈ 15.5 µM)	0.78 (≈ 1.93 µM)	MIC ([11]; Staphylococcus aureus): 0.39 µg/mL (≈ 0.964 µM); MIC ([17]; Staphylococcus aureus, NR2855, read-out: minimum inhibitory concentration (MIC)): 0.39 µg/mL (≈ 0.964 µM)
COC1CCN(c2c(F)cc3c(=O)c(C(=O)O)cn4c3c2OCN4C)C1 (stereo not shown) [Example 37, 9-fluoro-10-(3-methoxy-1-pyrrolidinyl)-3-methyl-7-oxo-2,3-dihydro-7H-pyrido[3,2,1-ij]-1,3,4-benzoxadiazine-6-carboxylic acid]	25 (≈ 68.8 µM)	12.5 (≈ 34.4 µM)	0.78 (≈ 2.15 µM)	1.56 (≈ 4.29 µM)	6.25 (≈ 17.2 µM)	0.1 (≈ 0.275 µM)	6.25 (≈ 17.2 µM)	3.13 (≈ 8.61 µM)	≤ 0.0008	0.025 (≈ 0.0688 µM)	0.2 (≈ 0.55 µM)	0.78 (≈ 2.15 µM)	≤ 0.0008	0.013 (≈ 0.0358 µM)	≤ 0.0008	0.1 (≈ 0.275 µM)	≤ 0.0008	0.2 (≈ 0.55 µM)	3.13 (≈ 8.61 µM)	≤ 0.0008	MIC [11, 24]: 0.0016 µg/mL (≈ 0.0044 µM); MIC [17, 23]: ≤ 0.0008 µg/mL
CC(=O)CCN1CCN(c2c(F)cc3c(=O)c(C(=O)O)cn4c3c2OCN4C)CC1 [Example 51, 9-fluoro-3-methyl-7-oxo-10-[4-(3-oxo-n-butyl)-1-piperazinyl]-2,3-dihydro-7H-pyrido[3,2,1-ij]-1,3,4-benzoxadiazine-6-carboxylic acid]	1.56 (≈ 3.73 µM)	3.13 (≈ 7.48 µM)	0.1 (≈ 0.239 µM)	1.56 (≈ 3.73 µM)	0.2 (≈ 0.478 µM)	0.025 (≈ 0.0597 µM)	0.1 (≈ 0.239 µM)	0.2 (≈ 0.478 µM)		0.78 (≈ 1.86 µM)	0.025 (≈ 0.0597 µM)	0.025 (≈ 0.0597 µM)	0.025 (≈ 0.0597 µM)	0.05 (≈ 0.119 µM)	0.1 (≈ 0.239 µM)	0.1 (≈ 0.239 µM)	0.025 (≈ 0.0597 µM)	0.05 (≈ 0.119 µM)	12.5 (≈ 29.9 µM)	0.78 (≈ 1.86 µM)	MIC ([9]; Staphylococcus aureus): 0.39 µg/mL (≈ 0.932 µM); MIC [11, 24]: 0.2 µg/mL (≈ 0.478 µM); MIC [17, 23]: 1.56 µg/mL (≈ 3.73 µM)
CN1COc2c(N3CCN(CC(=O)O)CC3)c(F)cc3c(=O)c(C(=O)O)cn1c23 [Example 45]	6.25 (≈ 15.4 µM)	12.5 (≈ 30.8 µM)	0.78 (≈ 1.92 µM)	12.5 (≈ 30.8 µM)	0.78 (≈ 1.92 µM)	0.05 (≈ 0.123 µM)	0.78 (≈ 1.92 µM)	0.39 (≈ 0.96 µM)	0.78 (≈ 1.92 µM)	3.13 (≈ 7.7 µM)	0.1 (≈ 0.246 µM)	0.1 (≈ 0.246 µM)	0.1 (≈ 0.246 µM)	0.05 (≈ 0.123 µM)	0.39 (≈ 0.96 µM)	0.2 (≈ 0.492 µM)	0.1 (≈ 0.246 µM)	0.2 (≈ 0.492 µM)	50 (≈ 123 µM)	3.13 (≈ 7.7 µM)	MIC [11, 24]: 1.56 µg/mL (≈ 3.84 µM); MIC [17, 23]: 3.13 µg/mL (≈ 7.7 µM)
Cc1cn(-c2c(F)cc3c(=O)c(C(=O)O)cn4c3c2OCN4C)cn1 [Example 22]	6.25 (≈ 18.2 µM)	3.13 (≈ 9.09 µM)	0.78 (≈ 2.27 µM)	1.56 (≈ 4.53 µM)	0.78 (≈ 2.27 µM)	0.1 (≈ 0.29 µM)	1.56 (≈ 4.53 µM)	0.39 (≈ 1.13 µM)	0.2 (≈ 0.581 µM)	0.39 (≈ 1.13 µM)	0.1 (≈ 0.29 µM)	0.1 (≈ 0.29 µM)	0.025 (≈ 0.0726 µM)	0.1 (≈ 0.29 µM)	0.05 (≈ 0.145 µM)	0.1 (≈ 0.29 µM)	0.0065 (≈ 0.0189 µM)	0.1 (≈ 0.29 µM)	3.13 (≈ 9.09 µM)	0.2 (≈ 0.581 µM)	MIC [11, 24]: 0.2 µg/mL (≈ 0.581 µM); MIC [17, 23]: 0.39 µg/mL (≈ 1.13 µM)

Reference: patent US4864023A, “Pyrido(3,2,1-IJ)-1,3,4-benzoxadiazine derivatives” (priority 1988, dated 1989)
